Experimental data reported in patent publication US7022705B2, “Isoxazoline derivatives useful as antimicrobials” (AstraZeneca AB, priority 2001, dated 2006).
≈ marks a conversion by molar mass, not a printed value.

Assays:
Assay type in all cases: cell-based
[1] = test system: Staphylococcus aureus MSQS (methicillin sensitive and quinolone sensitive); assay: MIC, agar-dilution, Staphylococcus aureus MSQS; conditions: inoculum 10^4 CFU/spot, 37° C., 24 hours
Experimental: (§1) The following results were obtained on a standard in-vitro test system. The activity is described in terms of the minimum inhibitory concentration (MIC) determined by the agar-dilution technique with an inoculum size of 10^4 CFU/spot. Typically, compounds are active in the range 0.01 to 256 μg/ml.
(§2) Staphylococci were tested on agar, using an inoculum of 10^4 CFU/spot and an incubation temperature of 37° C. for 24 hours—standard test conditions for the expression of methicillin resistance.

[2] = test system: Staphylococcus aureus MRQR (methicillin resistant and quinolone resistant); assay: MIC, agar-dilution, Staphylococcus aureus MRQR; conditions: inoculum 10^4 CFU/spot, 37° C., 24 hours
Experimental: as §1, §2

Streptococcus pneumoniae = assay: MIC, agar with 5% horse blood, Streptococcus pneumoniae; conditions: agar with 5% defibrinated horse blood, 10^4 CFU/spot, 37° C., 5% carbon dioxide, 48 hours
Experimental: as §1
(§3) Streptococci and enterococci were tested on agar supplemented with 5% defibrinated horse blood, an inoculum of 10^4 CFU/spot and an incubation temperature of 37° C. in an atmosphere of 5% carbon dioxide for 48 hours—blood is required for the growth of some of the test organisms. Fastidious Gram negative organisms were tested in Mueller-Hinton broth, supplemented with hemin and NAD, grown aerobically for 24 hours at 37° C., and with an innoculum of 5×10^4 CFU/well.

Streptococcus pyogenes = assay: MIC, agar with 5% horse blood, Streptococcus pyogenes; conditions: agar with 5% defibrinated horse blood, 10^4 CFU/spot, 37° C., 5% carbon dioxide, 48 hours
Experimental: as §1, §3

Haemophilus influenzae = assay: MIC, Mueller-Hinton broth, Haemophilus influenzae; conditions: Mueller-Hinton broth with hemin and NAD, aerobic, 24 hours, 37° C., 5×10^4 CFU/well
Experimental: as §1, §3

Moraxella catarrhalis = assay: MIC, Mueller-Hinton broth, Moraxella catarrhalis; conditions: Mueller-Hinton broth with hemin and NAD, aerobic, 24 hours, 37° C., 5×10^4 CFU/well
Experimental: as §1, §3

Compound: Fc1cc(C2=NOC(Cn3ccnn3)C2)ccc1N1CCNCC1 (racemic) [Example 7, (5RS)-3-(3-Fluoro-4-piperazin-1-ylphenyl)-5-(1,2,3-triazol-1-yl-methyl)-4,5-dihydroisoxazole]
- MIC [1]: 8 µg/mL (≈ 24.2 µM)
- MIC [2]: 16 µg/mL (≈ 48.4 µM)
- MIC (Streptococcus pneumoniae): 1 µg/mL (≈ 3.03 µM)
- MIC (Streptococcus pyogenes): 2 µg/mL (≈ 6.05 µM)
- MIC (Haemophilus influenzae): 32 µg/mL (≈ 96.9 µM)
- MIC (Moraxella catarrhalis): 32 µg/mL (≈ 96.9 µM)
